Measured values published in patent US8293745B2 (Bioniche Life Sciences Inc., priority 2004, dated 2012).

Key:
HIV-1 = settings: cited from earlier work
EMC virus = settings: L929 cells; cited from earlier work
[1] = system: GIST of the posterior wall of the stomach; assay: Imatinib mesylate treatment of GIST in the same patient
HCV = settings: 400 mg/day
Protocol: A person diagnosed with chronic active hepatitis C. […] The patient was positive for antibodies for HCV. Histological confirmation of chronic hepatitis was corroborated by positive hepatic biopsies at month zero.
For 18 months, the patient was treated with interferon alpha-2 at 180 μg/week. For the next 4 months, the patient was given intravenous administration of 6 million units (MU) interferon-beta daily for 6 weeks followed by three times weekly for 20 weeks. Subsequently, the patient was treated with interferon alpha-2 at 180 μg/week plus ribavirin 1000-1200 mg/day for 5 months. Subsequently, the patient was treated with pegylated interferon alpha-2b (PEG-interferon) at 1.5 μg/kg once weekly for 25 months.
Subsequently, the patient was diagnosed with a GIST of the posterior wall of the stomach. […] The patient then underwent surgical resection of the GIST.

c-Kit tyrosine kinase = settings: cited from earlier work
chronic phase CML = settings: high-dose, newly diagnosed chronic phase CML; cited from earlier work
[2] = human patient with HCV and GIST, within 2 weeks after the beginning of treatment, FIG. 1

Which HIV-1 replication (HIV-1) does the source give for `OCCC#Cc1nc(-c2ccc(F)cc2)c(-c2ccncc2)n1CCCc1ccccc1` [RWJ67657] here?
The HIV-1 replication was “effective in inhibiting HIV-1 replication”.

For `CO[C@H]1[C@@H](OC)C[C@H](C)[C@@H](OC)C2=CC(=O)C=C(NC(=O)/C(C)=C/C=C\[C@H](OC)[C@@H](OC(N)=O)/C(C)=C/[C@@H]1C)C2=O` [herbimycin A], which EMC virus replication (EMC virus) is on record?
Its EMC virus replication is “suppressed viral replication”.

Which “remission of GIST” value ([1]; 400 mg/day, pre- and postoperative) does the source give for `CS(=O)(=O)O.Cc1ccc(NC(=O)c2ccc(CN3CCN(C)CC3)cc2)cc1Nc1nccc(-c2cccnc2)n1` [imatinib mesylate, 4-[(4-methyl-1-piperazinyl)methyl]-N-[4-methyl-3-[[4-(3-pyridinyl)-2-pyrimidinyl]amino]phenyl]-benzamide methanesulfonate] here?
Its value is “achieved cytogenetic and molecular remission”.

And the complication during treatment ([1]; after 5 months preoperative 400 mg/day, treatment halted)?
The complication during treatment was “acute hemorrhage of the tumor”.

And the “attenuation of the gastric tumor (histologic examination)” value ([1]; after imatinib mesylate treatment)?
Its value is “significant decreased attenuation”.

And the metastasis status ([1]; one year after the initiation of treatment)?
The metastasis status was “without metastasis”.

And the “levels of alanine aminotransferase” value (HCV; [2])?
The value was “dramatically decreased”.

What about the “levels of aspartate aminotransferase” value (HCV; [2]) of the same compound?
Its value is “dramatically decreased”.

What about the quality of life (HCV; patient-reported) of the same compound?
Its quality of life is “clear improvement”.

Which EMC virus replication (EMC virus) does the source give for `O=c1c(-c2ccc(O)cc2)coc2cc(O)cc(O)c12` [genistein] here?
Its EMC virus replication is “suppressed viral replication”.

With `Cc1ccc(NC(=O)c2ccc(CN3CCN(C)CC3)cc2)cc1Nc1nccc(-c2cccnc2)n1` [imatinib, 4-[(4-methyl-1-piperazinyl)methyl]-N-[4-methyl-3-[[4-(3-pyridinyl)-2-pyrimidinyl]amino]phenyl]-benzamide] as the compound, how does the “inhibition of c-Kit tyrosine kinase activity, wild-type vs constitutively active enzyme” value (c-Kit tyrosine kinase) read?
The value was “equally effective against both wild-type and constitutively active enzyme”.

And the “rates of complete cytogenetic response and of molecular response” value (chronic phase CML)?
The value was “higher rates”.
